Series [1] can be described thus: Cardiotoxicity based on cardiac troponin I level and histology. The class given is in vivo. Conditions: 1 mg/kg (8 doses) and high single dose. As for the experimental part: Data are presented as mean±SD (n=5) *P<0.05, **P<0.01. c provides cardiac Troponin I level after administration of free doxorubicin (DOX) and doxorubicin nanoparticles (DOX-NPs).
The doxorubicin nanoparticles have an average particle diameter of 138 nm. […] The release of Dox in PBS was steady at approximately 2% per day, with 24% released in 12 days. […] Cardiotoxicity was tested based on cardiac troponin I level and histology.

The subject of series [2] is pS^552-β-catenin. The series can be described thus: Western analysis of pS552-β-catenin in compound-treated TOP and FOP cells. Conditions: TOP and FOP cells treated 48 hours at EC90, EC50, EC25.
Experimental: (§1) Cytotoxicity profiles (CTG) of compounds were also determined. […] TOP and FOP cells were treated with candidate compounds at EC90, EC50 and EC25 derived from (b) for 48 hours, washed and flash frozen for Western analysis (c).
(§2) Activity of compounds was tested against HEK-TOP cells vs. HEK FOP cells for inhibition of luciferase activity. The cytotoxicity profiles of the compounds were also tested using Cell Titer Glo assay (Promega) on HEK-TOP cell lines. […] The HEK cells and HEK Top cells were plated at 300,000 cells/well in 6 well plates and were treated in duplicate with EC90, EC50 and EC25 concentrations of the 25 repurchased compounds as well as three controls. After 48 h of exposure, the cells were washed with PBS and flash frozen. The frozen cells were lysed directly in plates for Western analysis.
Series [3] deals with BM cells isolated from leukemic Pten:β-cat^Act double mutants (LSCs, HSPCs). The series can be described thus: In vitro treatment of BM cells from leukemic mice, flow cytometry for LSCs and HSPCs. As to conditions: 11, 33 or 100 nM, 72 hours. Format: cell-based, mouse. The procedure: Doxorubicin, 0105375, and thioguanosine were added to 11, 33 or 100 nM and cultured for 72 hours and analyzed by flow cytometry for LSCs (a) and HSPCs (b) as in FIG. 1. Fold change before and after culture for each population is indicated relative to equivalent vehicle control concentrations.
Bone marrow cells from leukemic mice at 8 weeks post-induction were cultured overnight at 5-20×10^4 cells per well in 96-well U-bottom tissue culture plates (Becton, Dickinson and Company; Cat. No. 353077) in HSC expansion media in low O2 conditions as previously described (Perry, J. M. et al. Cooperation between both Wnt/{beta}-catenin and PTEN/PI3K/Akt signaling promotes primitive hematopoietic stem cell self-renewal and expansion. Genes Dev 25, 1928-1942 (2011)). Doxorubicin (Sigma; D1515), 0105375 ((S)-N-(2-bromobenzyl)-N-(1-hydroxy-3-phenylpropan-2-yl)ethenesulfonamide, University of Kansas CMLD compound), or Thioguanosine was mixed with HSC expansion media and added to the cultures to obtain final concentrations of 11, 33, 100 nM. Equivalent amounts of DMSO alone (vehicle control) were added to parallel cultures for comparison. Half-media changes were performed approximately every 24 hrs. Cultures were analyzed after 72 hrs exposure to the indicated drug.
Background: Flow cytometry measures light scatter and fluorescence of single cells or particles in a stream.

Series [4] deals with tumorigenic cells (functional LSCs) in BM of treated leukemic mice. In words: Tumorigenic assay: BM of treated leukemic mice transplanted into NSG recipients. The class given is in vivo, mouse.
Experimental: At 12 days post-treatment, BM was harvested from treated mice and transplanted into sub-lethally irradiated NSG recipients. a, Treatment schematic and Kaplan-Meier curves of recipient mice. b, Recipients of BM from [Low]DXR only treated leukemic mice were analyzed by flow cytometry at 6 months post-transplant. […] Dashed line indicates day of final [Low]nanoDXR treatment. f, Surviving [Low]nanoDXR treated mice were analyzed by flow cytometry at 230 days post-treatment.
At 12 days post-treatment, BM was harvested from treated mice and transplanted into sub-lethally irradiated NSG recipients. a, Treatment schematic and Kaplan-Meier curves of recipient mice.
Tumorigenic assays were performed by transplanting 0.5, 1.5, or 4.5×10^4 bone marrow cells from treated mice at 12 days post-treatment into 3.25 Gy irradiated NSG recipient mice. 10 recipients were used for each dose from each group. One male and one female donor was used for each group. Leukemia was assessed in mice euthanized due to poor health by analyzing CD45^Hi CD3^+ cell frequency. Mice having >20% Blasts in the bone marrow were considered leukemic.
A cohort of mice was established as in FIG. 3a. One week after completion of treatment with vehicle, chemotherapy, [Low]DXR, or chemotherapy+[Low]DXR, we transplanted BM from treated mice into irradiated NSG recipients to test for tumorigenic cells.
For series [5], the system named is pS^552-β-catenin. The series can be described thus: Anti-pS552-β-catenin staining of populations sorted from treated leukemic mice. Format: in vivo, mouse. Conditions: [Low]DXR 0.5 mg/kg daily x5; chemotherapy Nelarabine 217 mg/kg + Dexamethasone 10 mg/kg daily x5. An excerpt: Open arrows indicate a single treatment cycle for typical clinical use of DXR and targeted use strategy (inner box) drawn to relative scales. Triangles represent DXR treatment drawn proportionally to scale. The cumulative targeted dose (distributed over 5 days consecutively) is indicated to relative scale by the inner triangle (white) (see Methods). c, Representative flow cytometry sorting gates indicating HSPC, LSC and (non-LSC) T-ALL blast cell populations. d, Populations from (c) were sorted from leukemic mice treated as indicated in (a,b) with vehicle, chemotherapy, [Low]DXR or chemotherapy+[Low]DXR and stained with Anti-pS^552-β-catenin antibody. Mean fluorescent intensity (MFI) is indicated for each population and treatment. e, Representative images of pS^552-β-catenin staining of LSCs sorted from mice treated as indicated from (d). Scale bars, 30 μm (inset 3 μm).
Chemotherapy consisted of Nelarabine (Selleck) and Dexamethasone (BioVision) administered daily for 5 days consecutively. 43.4 mg/ml Nelarabine was administered intravenously via the tail vain according to the formula: Body Weight (g)×5=volume to inject (μl), which yielded 217 mg/kg. 2.5 mg/ml Dexamethasone was injected intraperitoneally according to the formula: Body Weight (g)×4=volume to inject (μl), yielding 10 mg/kg. […]
It was next determined whether DXR could inhibit pS^552-β-catenin in vivo. […]

For another series, the system named is pan β-catenin. In words: Western analysis of pan β-catenin in compound-treated TOP and FOP cells. As to conditions: TOP and FOP cells treated 48 hours at EC90, EC50, EC25.

Molecules are shown by their SMILES.

Experimental for pan β-catenin: as §1, §2

As to `COc1cccc2c1C(=O)c1c(O)c3c(c(O)c1C2=O)C[C@@](O)(C(=O)CO)C[C@@H]3O[C@H]1C[C@H](N)[C@H](O)[C@H](C)O1` [DXR, doxorubicin], the “cardiotoxicity (cardiac troponin I level and histology)” value in series [1] is on record as “showed cardiotoxicity”. For the same compound, the “inhibition of pS552-β-catenin (Western)” value with pS^552-β-catenin [2] is reported as “effectively inhibited pS^552-β-catenin”. In series [3], the “HSPCs after culture, relative to vehicle” value is reported as “not HSPCs” and the “LSCs after culture, relative to vehicle” value is listed as “significantly reduced LSCs”. Further, the “blast cells, LSCs and HSPCs in surviving recipients” value in series [4] (6 months post-transplant) was “only trace levels of blast cells and LSCs, and HSPCs were within normal parameters”. For the same compound, the “recipients remaining healthy nearly 6 months post-transplant” value in series [4] (recipients of BM from treated leukemic mice) is reported as 29/30. Moreover, the “pS552-β-catenin level in LSCs sorted from treated mice” value in the series with pS^552-β-catenin [5] was “reduced in LSCs isolated from mice recently treated with [Low]DXR, although consistent variability yielded no statistical significance”. In addition, the “effect on pan β-catenin (Western)” value in the series on pan β-catenin is recorded as “only minimal effect on pan β-catenin”.

These data come from patent publication US11173173B2, “Methods for treating chemoresistant cancer-initiating cells” (UNIVERSITY OF CONNECTICUT, priority 2015, dated 2021).
